± gives the expanded uncertainty stated by the source.

For this series the following is noted: 101.33 kPa, Liquid.

For `CCCCI` [1-iodobutane], the mass density reads like this: (253.15 K) 1670.9 ± 3.3 kg/m3; (263.15 K) 1655.2 ± 3.2 kg/m3; (273.15 K) 1639.1 ± 3.1 kg/m3; (283.15 K) 1623.7 ± 3 kg/m3; (293.15 K) 1607.6 ± 2.9 kg/m3; (298.15 K) 1599.8 ± 2.9 kg/m3. In addition, the mass density is, setting by setting: (323.15 K) 1558.7 ± 2.9 kg/m3; (343.15 K) 1525.7 ± 2.9 kg/m3; (363.15 K) 1492 ± 2.9 kg/m3; (383.15 K) 1457.2 ± 2.9 kg/m3.

As for `CCCI` [1-iodopropane], the mass density reads like this: (253.15 K) 1820.9 ± 1.8 kg/m3; (263.15 K) 1802.5 ± 1.7 kg/m3; (273.15 K) 1784.5 ± 1.7 kg/m3; (283.15 K) 1765.9 ± 1.6 kg/m3; (293.15 K) 1747.8 ± 1.5 kg/m3; (324.15 K) 1688.3 ± 1.6 kg/m3. Besides, the mass density by setting is: (343.15 K) 1652.2 ± 1.6 kg/m3; (358.15 K) 1622.3 ± 1.7 kg/m3.

The term mass density denotes mass per unit of volume.

The record behind these values is the NIST ThermoML archive (doi:10.1021/je700020t).
